Laboratory results: patent US20190203230A1, “POROUS MEMBRANE-BASED MACROMOLECULE DELIVERY SYSTEM” (NOVARTIS AG, priority 2016, published 2019)

Tested on: HbF
Assay: Erythroid differentiation and HbF detection by flow cytometry
Format: cell-based, human
Details: erythroid differentiation, flow cytometry (days 7 and 14 collected; day of the values not stated); UNC0638 at 0.5 μM
Description: The present teachings (herein also referred to as TRIAMF for brevity) were applied for the delivery of RNPs consisting of guides targeting the HBG […] to recapitulate the genotype of a form of hereditary persistent fetal hemoglobin found in many patients. […] Through a combination of next generation sequencing (NGS) and quantitative PCR (qPCR), editing efficiency at the target site was determined to be a total average of 63% total editing.
FIG. 20 depicts percentage of HbF cells at D7 and D14 of erythroid differentiation protocol of WT, mock treated, HBG edited, and UNC0638 (Blood. 2015, July 30:126(5):665-72) positive control treated cells. Cells were analyzed by fixation and staining of CD235a,CD71, and HbF. The cells were collected on days 7 and 14 and stained with CD235a, CD71, and fetal hemoglobin, and analyzed with flow cytometry. […]

SMILES: COc1cc2c(NC3CCN(C(C)C)CC3)nc(C3CCCCC3)nc2cc1OCCCN1CCCC1 [UNC0638]
- cells expressed HbF: 92%
